Experimental data published in PubChem BioAssay (NCI).
Several values for one entry are separate records, joined by “and”; a condition that tells them apart may be missing. Equal entries are not always repeated.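 Grown in 96-well plates, cells were treated for 48 hours with each compound at five concentrations. Insufficient inhibition: endpoint recorded as highest concentration tested. GI50 marks 50% less growth. Definition used: TGI = concentration required for complete inhibition of growth.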

Key:
Assay in all cases: NCI tumour cell line growth inhibition, 48 h
IGROV1 ovarian = test system: IGROV1 ovarian
K-562 leukemia = test system: K-562 leukemia
UO-31 renal = test system: UO-31 renal
HT29 colon = test system: HT29 colon
UACC-62 melanoma = test system: UACC-62 melanoma
HL-60(TB) leukemia = test system: HL-60(TB) leukemia
ACHN renal = test system: ACHN renal
HOP-62 NSCLC = test system: HOP-62 NSCLC
MDA-MB-435 = test system: MDA-MB-435
MDA-MB-231 breast = test system: MDA-MB-231 breast

Row | SMILES | TGI (IGROV1 ovarian) [µM] | TGI (K-562 leukemia) [µM] | TGI (UO-31 renal) [µM] | TGI (HT29 colon) [µM] | TGI (UACC-62 melanoma) [µM] | TGI (HL-60(TB) leukemia) [µM] | TGI (ACHN renal) [µM] | TGI (HOP-62 NSCLC) [µM] | GI50 (IGROV1 ovarian) | GI50 (K-562 leukemia) | GI50 (UO-31 renal) | GI50 (HT29 colon) | GI50 (UACC-62 melanoma) | GI50 (HL-60(TB) leukemia) | GI50 (MDA-MB-435) | GI50 (HOP-62 NSCLC) | GI50 (ACHN renal) [µM] | TGI (MDA-MB-435) [µM] | GI50 (MDA-MB-231 breast) [µM] | TGI (MDA-MB-231 breast) [µM]
1 | O=C1CCCCCCCCCCC1CN1CCCCC1 (stereo not drawn) | > 100 | > 100 | > 100 | > 100 | > 100 | > 100 | > 100 | > 100 | – | – | – | – | – | – | – | – | – | – | – | –
2 | CC(C)(C)C1CCC2c3c([nH]c4ccccc34)C3C(=O)N(c4ccccc4)C(=O)C3C2C1 (stereo not drawn) | 39.4 | 15.8 | 8.48 | > 100 | 56.7 | 30.6 | 26.2 | – | – | – | – | – | – | – | – | – | – | – | – | –
3 | CC(C)(C)C(=O)OC12/C(=N/O)CCCCCC1c1ccccc12 (stereo not drawn) | 29.6 | 55.4 | 31.7 | 26 | 31.5 | 45.5 | 31.8 | 37 | – | – | – | – | – | – | – | – | – | – | – | –
4 | CC(C)C1=CC23CCC4C(C)(C(=O)O)CCCC4(C)C2CC1C1C(=O)N(c2ccccc2)C(=O)C13 (stereo not drawn) | > 100 | > 100 | > 100 | > 100 | > 100 | > 100 | > 100 | > 100 | – | – | – | – | – | – | – | – | – | – | – | –
5 | CCOC(=O)C(C)(C)Oc1ccc(/C=C/C(=O)c2ccc(Cl)cc2)cc1 | 35.1 | 82.2 | > 100 | 29.3 | 44 | > 100 | – | > 100 | – | – | – | – | – | – | – | – | – | – | – | –
6 | Cc1c(C(=O)/C=C/c2ccc(N(C)C)cc2)c(=O)n(-c2ccccc2)n1C | > 100 | – | > 100 | > 100 | > 100 | – | > 100 | – | – | – | – | – | – | – | – | – | – | – | – | –
7 | CO[C@H](C(=O)[C@@H](O)[C@@H](C)O)[C@@H]1Cc2cc3cc(OC4CC(OC5CC(O)C(O)C(C)O5)C(O)C(C)O4)c(C)c(O)c3c(O)c2C(=O)[C@H]1OC1CC(OC2CC(OC3CC(C)(O)C(O)C(C)O3)C(O)C(C)O2)C(O)C(C)O1 (stereo partly drawn) | – | – | – | – | – | – | – | – | 0.0472 µg/mL and 0.0289 µg/mL | 0.0253 µg/mL and 0.017 µg/mL | 0.132 µg/mL and 0.225 µg/mL | 0.029 µg/mL and 0.0205 µg/mL | 0.011 µg/mL | 0.05 µg/mL and 0.0761 µg/mL | 0.0222 µg/mL and 0.0246 µg/mL and 1.25 µM | 0.0237 µg/mL and 0.02 µg/mL | – | – | – | –
8 | CCOC(=N)CC(=O)c1ccccc1 | > 100 | > 100 | > 100 | > 100 | > 100 | > 100 | > 100 | > 100 | – | – | – | – | – | – | – | – | – | – | – | –
9 | CC/C(CC(=O)CCC(=O)Nc1ccccc1[N+](=O)[O-])=N/NC(=O)C[n+]1ccccc1 | > 100 | > 100 | > 100 | > 100 | > 100 | > 100 | > 100 | > 100 | – | – | – | – | – | – | – | – | – | – | – | –
10 | O=[N+]([O-])CCc1cccc([N+](=O)[O-])c1 | > 100 | > 100 | > 100 | > 100 | > 100 | > 100 | > 100 | > 100 | – | – | – | – | – | – | – | – | – | – | – | –
11 | Cc1cc(Cl)ccc1NC(=O)C(=O)C(C(=O)c1ccc2ccccc2c1)C1OC(=O)c2ccccc21 (stereo not drawn) | > 100 | 33.8 | 31.5 | 72.6 | 24 | – | > 100 | 26.6 | – | – | – | – | – | – | – | – | – | – | – | –
12 | CSc1n[n+]2c(s1)SCCC2 | > 100 | > 100 | > 100 | > 100 | > 100 | > 100 | > 100 | > 100 | – | – | – | – | – | – | – | – | – | – | – | –
13 | CN(C)c1nc(=Nc2cccc(Cl)c2)ss1 | 51 | 41.8 | 69.8 | 36.3 | 23.4 | 23 | 37.2 | > 100 | – | – | – | – | – | – | – | – | – | – | – | –
14 | FC(F)(F)C1(Br)C(c2ccccc2)=C1c1ccccc1 | 74.3 | 28.2 | 33.9 | 34.8 | 30.8 | > 100 | 40.3 | 39.4 | – | – | – | – | – | – | – | – | – | – | – | –
15 | C=C[C@@]1(O)CCCC2=C(C(=O)OCC)CC[C@]21C | > 100 | > 100 | > 100 | > 100 | – | > 100 | > 100 | – | – | – | – | – | – | – | – | – | – | – | – | –
16 | Cc1cn2c(/C=N/N=C(N)N)c(-c3cccs3)nc2s1 | 27.1 | 5.43 | 38.9 | 7.14 | 3.12 | – | 5 | – | 10.5 µM | 2.06 µM | 16.6 µM | 2.1 µM | 1.64 µM | – | 4.96 µM | – | 2.12 | 18.5 | 1.9 | 5.79
17 | O=C1C(Cl)C(c2ccccc2O)N1n1cnc2ccccc2c1=O (stereo not drawn) | > 100 | > 100 | > 100 | > 100 | > 100 | > 100 | > 100 | > 100 | – | – | – | – | – | – | – | – | – | – | – | –
18 | O=S1Nc2c(Cl)cc(Cl)c3c(Cl)cc(Cl)c(c23)N1 | > 100 | > 100 | > 100 | > 100 | 66 | > 100 | 73.8 | – | – | – | – | – | – | – | – | – | – | – | – | –
